Target: T1, Nav1.7 voltage-gated sodium channel (Homo sapiens, UniProt Q15858)
T1 construct: Gene(s) encoding the full-length protein of the voltage-gated sodium channel of interest are cloned and expressed; expressed in transfected cells
Assay: Whole-cell voltage clamp electrophysiology assay
Type: cell-based
Details: cells stably expressing the voltage-gated sodium channel of interest
Text: Gene(s) encoding the full-length protein of the voltage-gated sodium channel of interest are cloned and expressed under a suitable promoter in a suitable cell line, as well known in the art. […] Suitable screening assays are as follows.
Electrophysiological studies can be performed using automated patch-clamp electrophysiology platforms, like IonWorks HT, IonWorks Quattro, PatchXpress, QPatch or any other suitable platform. […] Suitable extracellular and intracellular buffer for such experiments are applied according to the instructions given by the manufacturer of the automated patch-clamp platforms. Cells that express the voltage-gated sodium channel protein of interest are exposed to drugs through the pipetting system integrated in the platforms. A suitable voltage stimulus protocol is used to activate the voltage-gated sodium channel proteins of interest through depolarisation from a defined holding potential.
Electrophysiological studies can also be performed using the whole cell configuration of the standard patch clamp technique. In this assay, cells that express the voltage-gated sodium channel protein of interest are exposed to the drugs by conventional microperfusion systems and a suitable voltage stimulus protocol is used to activate the voltage-gated sodium channels.

T1 sequence (Q15858 whole entry): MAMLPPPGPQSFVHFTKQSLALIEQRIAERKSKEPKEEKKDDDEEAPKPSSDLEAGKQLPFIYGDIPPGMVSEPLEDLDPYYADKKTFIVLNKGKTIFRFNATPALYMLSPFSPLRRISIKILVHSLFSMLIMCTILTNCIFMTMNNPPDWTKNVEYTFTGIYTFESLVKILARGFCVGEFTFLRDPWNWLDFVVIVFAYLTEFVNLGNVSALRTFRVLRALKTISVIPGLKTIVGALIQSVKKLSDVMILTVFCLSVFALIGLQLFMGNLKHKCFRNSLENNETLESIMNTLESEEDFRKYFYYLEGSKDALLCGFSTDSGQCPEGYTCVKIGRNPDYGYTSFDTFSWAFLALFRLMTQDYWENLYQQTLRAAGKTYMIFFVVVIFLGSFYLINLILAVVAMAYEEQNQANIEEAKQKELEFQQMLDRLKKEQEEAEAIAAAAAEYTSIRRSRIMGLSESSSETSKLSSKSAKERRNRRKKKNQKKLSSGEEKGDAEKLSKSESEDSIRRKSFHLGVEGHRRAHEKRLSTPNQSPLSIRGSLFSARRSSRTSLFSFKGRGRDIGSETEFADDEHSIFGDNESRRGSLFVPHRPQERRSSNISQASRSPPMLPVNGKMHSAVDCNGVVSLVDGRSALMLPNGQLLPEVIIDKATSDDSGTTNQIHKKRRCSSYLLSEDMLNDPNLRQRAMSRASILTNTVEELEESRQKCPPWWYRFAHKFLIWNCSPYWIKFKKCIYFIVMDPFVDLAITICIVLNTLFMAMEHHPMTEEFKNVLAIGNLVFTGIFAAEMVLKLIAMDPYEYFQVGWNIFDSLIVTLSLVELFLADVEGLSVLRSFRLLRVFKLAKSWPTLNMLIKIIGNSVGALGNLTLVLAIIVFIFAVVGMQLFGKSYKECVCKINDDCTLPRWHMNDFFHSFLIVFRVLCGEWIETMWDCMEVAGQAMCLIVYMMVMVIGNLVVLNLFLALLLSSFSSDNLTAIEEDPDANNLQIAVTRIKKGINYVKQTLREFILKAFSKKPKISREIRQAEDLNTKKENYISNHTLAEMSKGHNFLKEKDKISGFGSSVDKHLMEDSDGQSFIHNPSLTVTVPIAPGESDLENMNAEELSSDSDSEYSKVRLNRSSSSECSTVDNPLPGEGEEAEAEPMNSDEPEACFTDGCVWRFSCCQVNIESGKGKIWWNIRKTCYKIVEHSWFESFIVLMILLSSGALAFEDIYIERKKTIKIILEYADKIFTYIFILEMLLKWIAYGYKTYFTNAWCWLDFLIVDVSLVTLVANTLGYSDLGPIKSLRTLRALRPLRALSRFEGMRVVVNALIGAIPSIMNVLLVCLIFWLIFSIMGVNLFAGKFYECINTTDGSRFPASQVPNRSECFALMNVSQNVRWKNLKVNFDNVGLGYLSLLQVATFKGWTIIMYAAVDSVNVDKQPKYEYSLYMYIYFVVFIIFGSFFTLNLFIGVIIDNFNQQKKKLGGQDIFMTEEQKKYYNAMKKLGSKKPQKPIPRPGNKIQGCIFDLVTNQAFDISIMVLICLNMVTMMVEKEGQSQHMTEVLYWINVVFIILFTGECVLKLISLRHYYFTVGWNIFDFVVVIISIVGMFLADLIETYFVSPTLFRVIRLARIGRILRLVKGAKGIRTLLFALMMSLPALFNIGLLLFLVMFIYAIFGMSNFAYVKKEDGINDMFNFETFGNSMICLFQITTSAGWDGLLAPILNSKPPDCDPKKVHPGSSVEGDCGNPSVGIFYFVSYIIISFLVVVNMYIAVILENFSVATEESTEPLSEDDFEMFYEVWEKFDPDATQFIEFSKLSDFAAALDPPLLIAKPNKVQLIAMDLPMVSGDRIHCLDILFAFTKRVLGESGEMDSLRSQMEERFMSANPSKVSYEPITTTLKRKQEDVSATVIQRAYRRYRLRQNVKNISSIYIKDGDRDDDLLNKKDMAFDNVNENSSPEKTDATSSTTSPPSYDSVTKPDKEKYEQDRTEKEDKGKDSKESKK

SMILES	IC50
Cc1noc(C)c1-c1cccc2c1C[C@H](NC(=O)c1ccc(OC(C)C)nc1)CC2 [Example 31, N-[(2R)-8-(3,5-dimethylisoxazol-4-yl)-1,2,3,4-tetrahydronaphthalen-2-yl]-6-isopropoxy-nicotinamide]	2510 nM
Cc1noc(C)c1-c1cccc2c1C[C@H](NC(=O)c1cnc(OC3CCCC3)nc1)CC2 [Example 33, 2-(cyclopentyloxy)-N-[(2R)-8-(3,5-dimethylisoxazol-4-yl)-1,2,3,4-tetrahydronaphthalen-2-yl]pyrimidine-5-carboxamide]	316 nM
CCCCS(=O)(=O)c1ccc(C(=O)N[C@@H]2COc3cccc(-c4ccncc4)c3C2)cn1 [Example 34, 6-(butylsulfonyl)-N-[(3S)-5-pyridin-4-yl-3,4-dihydro-2H-chromen-3-yl]nicotinamide]	631 nM
O=C(N[C@@H]1COc2cccc(-c3ccncc3)c2C1)c1ccc(Cl)nc1 [Example 35, 6-chloro-N-[(3S)-5-pyridin-4-yl-3,4-dihydro-2H-chromen-3-yl]nicotinamide]	631 nM
CC(C)Oc1ncc(C(=O)N[C@@H]2COc3cccc(-c4ccncc4)c3C2)cn1 [Example 36, 2-isopropoxy-N-[(3S)-5-pyridin-4-yl-3,4-dihydro-2H-chromen-3-yl]pyrimidine-5-carboxamide]	1260 nM
COc1cnc(C(=O)N[C@@H]2COc3cccc(-c4ccncc4)c3C2)cn1 [Example 37, 5-methoxy-N-[(3S)-5-pyridin-4-yl-3,4-dihydro-2H-chromen-3-yl]pyrazine-2-carboxamide]	1000 nM
CC(C)Oc1cnc(C(=O)N[C@@H]2COc3cccc(-c4ccncc4)c3C2)cn1 [Example 38, 5-isopropoxy-N-[(3S)-5-pyridin-4-yl-3,4-dihydro-2H-chromen-3-yl]pyrazine-2-carboxamide]	631 nM
O=C(N[C@@H]1COc2cccc(-c3ccncc3)c2C1)c1cnc2ccccc2n1 [Example 41, N-[(3S)-5-pyridin-4-yl-3,4-dihydro-2H-chromen-3-yl]quinoxaline-2-carboxamide]	5010 nM
CC(C)Oc1cnc(C(=O)N[C@@H]2COc3cccc(-c4cccnc4)c3C2)cn1 [Example 42, 5-isopropoxy-N-[(3S)-5-pyridin-3-yl-3,4-dihydro-2H-chromen-3-yl]pyrazine-2-carboxamide]	1000 nM
O=C(N[C@@H]1COc2cccc(-c3cccnc3)c2C1)c1cnc(OCCC(F)(F)F)cn1 [Example 43, N-[(3S)-5-pyridin-3-yl-3,4-dihydro-2H-chromen-3-yl]-5-(3,3,3-trifluoropropoxy)pyrazine-2-carboxamide]	501 nM
COc1cnc(C(=O)N[C@@H]2COc3cccc(-c4cccnc4)c3C2)cn1 [Example 44, 5-methoxy-N-[(3S)-5-pyridin-3-yl-3,4-dihydro-2H-chromen-3-yl]pyrazine-2-carboxamide]	631 nM
O=C(N[C@@H]1COc2cccc(-c3cccnc3)c2C1)c1ccc2cccnc2n1 [Example 45, N-[(3S)-5-pyridin-3-yl-3,4-dihydro-2H-chromen-3-yl]-1,8-naphthyridine-2-carboxamide]	1260 nM
O=C(N[C@@H]1COc2cccc(-c3cccnc3)c2C1)c1ccc2ncccc2n1 [Example 46, N-[(3S)-5-pyridin-3-yl-3,4-dihydro-2H-chromen-3-yl]-1,5-naphthyridine-2-carboxamide]	3160 nM
COc1ccc(-c2cccc3c2C[C@H](NC(=O)c2cnc(OCCC(F)(F)F)cn2)CO3)cn1 [Example 48, N-[(3S)-5-(6-methoxypyridin-3-yl)-3,4-dihydro-2H-chromen-3-yl]-5-(3,3,3-trifluoropropoxy)pyrazine-2-carboxamide]	631 nM
COc1ccc(-c2cccc3c2C[C@H](NC(=O)c2cnc(OC)cn2)CO3)cn1 [Example 49, 5-methoxy-N-[(3S)-5-(6-methoxypyridin-3-yl)-3,4-dihydro-2H-chromen-3-yl]pyrazine-2-carboxamide]	1260 nM
Cc1nn(CC(C)C)nc1C(=O)N[C@@H]1COc2cccc(-c3cccnc3)c2C1 [Example 52, 2-isobutyl-5-methyl-N-[(3S)-5-pyridin-3-yl-3,4-dihydro-2H-chromen-3-yl]-2H-1,2,3-triazole-4-carboxamide]	3980 nM
COc1ncc(-c2cccc3c2C[C@H](NC(=O)c2ccc(OC(C)C)nc2)CO3)cn1 [Example 55, 6-isopropoxy-N-[(3S)-5-(2-methoxypyrimidin-5-yl)-3,4-dihydro-2H-chromen-3-yl]nicotinamide]	316 nM
COc1cc(-c2cccc3c2C[C@H](NC(=O)c2ccc(OC(C)C)nc2)CO3)ccn1 [Example 58, 6-isopropoxy-N-[(3S)-5-(2-methoxypyridin-4-yl)-3,4-dihydro-2H-chromen-3-yl]nicotinamide]	398 nM
CC(C)Oc1ccc(C(=O)N[C@@H]2COc3cccc(-c4ccnc(F)c4)c3C2)cn1 [Example 62, N-[(3S)-5-(2-fluoropyridin-4-yl)-3,4-dihydro-2H-chromen-3-yl]-6-isopropoxynicotinamide]	251 nM
O=C(N[C@@H]1COc2cccc(-c3cccnc3)c2C1)c1ccc2ccccc2n1 [Example 65, N-[(3S)-5-pyridin-3-yl-3,4-dihydro-2H-chromen-3-yl]quinoline-2-carboxamide]	5010 nM
CC(C)Oc1ccc(C(=O)N[C@@H]2COc3cccc(-c4ccc(F)nc4)c3C2)cn1 [Example 67, N-[(3S)-5-(6-fluoropyridin-3-yl)-3,4-dihydro-2H-chromen-3-yl]-6-isopropoxynicotinamide]	501 nM

Results, then the compound that gave them:

IC50	SMILES
158 nM	O=C(N[C@@H]1COc2cccc(-c3ccncc3)c2C1)c1ccc(OC2CCC2)nc1 [Example 29, 6-(cyclobutyloxy)-N-[(3S)-5-pyridin-4-yl-3,4-dihydro-2H-chromen-3-yl]nicotin-amide]
200 nM	O=C(N[C@@H]1COc2cccc(-c3ccncc3)c2C1)c1ccc(OCC2CC2)nc1 [Example 30, 6-(cyclopropylmethoxy)-N-[(3S)-5-pyridin-4-yl-3,4-dihydro-2H-chromen-3-yl]nicotin-amide]
126 nM	CC(C)Oc1ccc(C(=O)N[C@@H]2CCc3cccc(-c4ccncc4F)c3C2)cn1 [Example 39, N-[(2R)-8-(3-fluoropyridin-4-yl)-1,2,3,4-tetrahydronaphthalen-2-yl]-6-isopropoxynicotinamide]
50.1 nM	O=C(N[C@@H]1CCc2cccc(-c3ccncc3F)c2C1)c1ccc(OCC(F)(F)F)nc1 [Example 40, N-[(2R)-8-(3-fluoropyridin-4-yl)-1,2,3,4-tetrahydronaphthalen-2-yl]-6-(2,2,2-trifluoroethoxy)nicotinamide]
63.1 nM	CC(C)Oc1ccc(C(=O)N[C@@H]2COc3cccc(-c4cccnc4)c3C2)cn1 [Example 50, 6-isopropoxy-N-[(3S)-5-pyridin-3-yl-3,4-dihydro-2H-chromen-3-yl]nicotinamide]
39.8 nM	O=C(N[C@@H]1COc2cccc(-c3cccnc3)c2C1)c1ccc(OCCC(F)(F)F)nc1 [Example 51, N-[(3S)-5-pyridin-3-yl-3,4-dihydro-2H-chromen-3-yl]-6-(3,3,3-trifluoropropoxy)nicotinamide]
251 nM	CC(C)Oc1ccc(C(=O)N[C@@H]2COc3cccc(-c4cncnc4)c3C2)cn1 [Example 53, 6-isopropoxy-N-[(3S)-5-pyrimidin-5-yl-3,4-dihydro-2H-chromen-3-yl]nicotinamide]
63.1 nM	O=C(N[C@@H]1COc2cccc(-c3cncnc3)c2C1)c1ccc(OCCC(F)(F)F)nc1 [Example 54, N-[(3S)-5-pyrimidin-5-yl-3,4-dihydro-2H-chromen-3-yl]-6-(3,3,3-trifluoropropoxy)nicotinamide]
126 nM	COc1cc(-c2cccc3c2C[C@H](NC(=O)c2ccc(OCCC(F)(F)F)nc2)CO3)ccn1 [Example 59, N-[(3S)-5-(2-methoxypyridin-4-yl)-3,4-dihydro-2H-chromen-3-yl]-6-(3,3,3-trifluoropropoxy)nicotinamide]
158 nM	Cc1ncc(-c2cccc3c2C[C@H](NC(=O)c2ccc(OC(C)C)nc2)CO3)cn1 [Example 60, 6-isopropoxy-N-[(3S)-5-(2-methylpyrimidin-5-yl)-3,4-dihydro-2H-chromen-3-yl]nicotinamide]
50.1 nM	Cc1ncc(-c2cccc3c2C[C@H](NC(=O)c2ccc(OCCC(F)(F)F)nc2)CO3)cn1 [Example 61, N-[(3S)-5-(2-methylpyrimidin-5-yl)-3,4-dihydro-2H-chromen-3-yl]-6-(3,3,3-trifluoropropoxy)nicotinamide]
79.4 nM	O=C(N[C@@H]1COc2cccc(-c3ccnc(F)c3)c2C1)c1ccc(OCCC(F)(F)F)nc1 [Example 63, N-[(3S)-5-(2-fluoropyridin-4-yl)-3,4-dihydro-2H-chromen-3-yl]-6-(3,3,3-trifluoropropoxy)nicotinamide]
158 nM	Cc1cnccc1-c1cccc2c1C[C@H](NC(=O)c1ccc(OC(C)C)nc1)CO2 [Example 66, 6-isopropoxy-N-[(3S)-5-(3-methylpyridin-4-yl)-3,4-dihydro-2H-chromen-3-yl]nicotinamide]
100 nM	Cc1cnccc1-c1cccc2c1C[C@H](NC(=O)c1ccc(OCCC(F)(F)F)nc1)CO2 [Example 68, N-[(3S)-5-(3-methylpyridin-4-yl)-3,4-dihydro-2H-chromen-3-yl]-6-(3,3,3-trifluoropropoxy)nicotinamide]
79.4 nM	O=C(N[C@@H]1COc2cccc(-c3ccc(F)nc3)c2C1)c1ccc(OCCC(F)(F)F)nc1 [Example 69, N-[(3S)-5-(6-fluoropyridin-3-yl)-3,4-dihydro-2H-chromen-3-yl]-6-(3,3,3-trifluoropropoxy)nicotinamide]
